Test results: the NIST ThermoML archive (doi:10.1016/j.jct.2013.10.023)
Numbers after ± are expanded uncertainties.

Columns and labels:
[1] = 101 kPa, Liquid; for viscosity: Capillary tube (Ostwald / Ubbelohde) method; for mass density: Vibrating tube method
[2] = xn = mol fraction of the nth substance listed; conditions: 101 kPa, Liquid, x2 = 0; for viscosity: Capillary tube (Ostwald / Ubbelohde) method; for mass density: Vibrating tube method

| SMILES | viscosity ([1]; 298.15 K) [mPa·s] | mass density ([1]; 298.15 K) [kg/m3] | viscosity ([1]; 308.15 K) [mPa·s] | mass density ([1]; 308.15 K) [kg/m3] | viscosity ([1]; 318.15 K) [mPa·s] | mass density ([1]; 318.15 K) [kg/m3] | viscosity ([1]; 328.15 K) [mPa·s] | mass density ([1]; 328.15 K) [kg/m3] | viscosity ([1]; 338.15 K) [mPa·s] | mass density ([1]; 338.15 K) [kg/m3] | viscosity ([1]; 348.15 K) [mPa·s] | mass density ([1]; 348.15 K) [kg/m3] | viscosity ([1]; 358.15 K) [mPa·s] | mass density ([1]; 358.15 K) [kg/m3] | further results |
| --- | --- | --- | --- | --- | --- | --- | --- | --- | --- | --- | --- | --- | --- | --- | --- |
| CC(=O)[O-].CCn1cc[n+](C)c1 [1-ethyl-3-methylimidazolium acetate] | 138.4 ± 3.6 | 1099.04 ± 10 | 76.1 ± 1.6 | 1092.95 ± 10 | 45.9 ± 0.96 | 1086.88 ± 10 | 30.1 ± 0.63 | 1080.86 ± 10 | 20.8 ± 0.44 | 1074.86 ± 10 | 14.28 ± 0.3 | 1071.37 ± 10 | 11.53 ± 0.24 | 1063.03 ± 10 | – |
| CCOS(=O)(=O)[O-].CCn1cc[n+](C)c1 [1-ethyl-3-methylimidazolium ethyl sulfate] + CC(=O)[O-].CCn1cc[n+](C)c1 | – | – | – | – | – | – | – | – | – | – | – | – | – | – | viscosity ([2]; 298.15 K): 96.62 ± 2.2 mPa·s; mass density ([2]; 298.15 K): 1238.68 ± 10 kg/m3; viscosity ([2]; 308.15 K): 60.41 ± 1.3 mPa·s; mass density ([2]; 308.15 K): 1231.92 ± 10 kg/m3; viscosity ([2]; 318.15 K): 39.95 ± 0.84 mPa·s; mass density ([2]; 318.15 K): 1225.2 ± 10 kg/m3; viscosity ([2]; 328.15 K): 28.91 ± 0.61 mPa·s; mass density ([2]; 328.15 K): 1218.51 ± 10 kg/m3; viscosity ([2]; 338.15 K): 20.63 ± 0.43 mPa·s; mass density ([2]; 338.15 K): 1211.88 ± 10 kg/m3; viscosity ([2]; 348.15 K): 15.66 ± 0.33 mPa·s; mass density ([2]; 348.15 K): 1208.19 ± 10 kg/m3; viscosity ([2]; 358.15 K): 12.23 ± 0.26 mPa·s; mass density ([2]; 358.15 K): 1198.75 ± 10 kg/m3 |
| CCOS(=O)(=O)[O-].CCn1cc[n+](C)c1 [1-ethyl-3-methylimidazolium ethyl sulfate] | 96.62 ± 2.2 | 1238.68 ± 10 | 60.41 ± 1.3 | 1231.92 ± 10 | 39.95 ± 0.84 | 1225.2 ± 10 | 28.91 ± 0.61 | 1218.51 ± 10 | 20.63 ± 0.43 | 1211.88 ± 10 | 15.66 ± 0.33 | 1208.19 ± 10 | 12.23 ± 0.26 | 1198.75 ± 10 | – |
